For 9 compounds, GI50 and TGI results are on record in PubChem BioAssay (NCI).

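Five concentrations, 48 hours, 96-well plates. GI50 = concentration required for 50% inhibition of growth. TGI: total growth inhibition.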 Some results are limits rather than exact numbers.

Test systems include HCT-15 colon; UACC-257 melanoma; HL-60(TB) leukemia; NCI-H460 lung; COLO 205 colon; NCI-H23 lung; IGROV1 ovarian; MCF7 breast.
Holding throughout (assay): NCI anticancer screen, dose series, 48 h

`COC(=O)c1ccc2[nH]c(O)c(C(=Nc3ccc(N(C)C(=O)CN4CCN(C)CC4)cc3)c3ccccc3)c2c1`: the GI50 was 1.77 µM in the experiment on HCT-15 colon; 2.24 µM in the experiment on UACC-257 melanoma; 0.835 µM in the experiment on HL-60(TB) leukemia; 1.87 µM in the experiment on NCI-H460 lung; 0.7 µM in the experiment on COLO 205 colon; 1.29 µM with NCI-H23 lung. For the same compound, the GI50 is 0.297 µM in the experiment on IGROV1 ovarian and 0.603 µM in the experiment with MCF7 breast. Moreover, the TGI worked out at 8.4 µM with HCT-15 colon; 5 µM in the experiment with UACC-257 melanoma; 3.12 µM with HL-60(TB) leukemia; 5.09 µM in the experiment on NCI-H460 lung; 2.45 µM with COLO 205 colon; 4.14 µM with NCI-H23 lung. In addition, the figures for the TGI with IGROV1 ovarian and in the experiment with MCF7 breast were 1.83 µM and 2.42 µM, respectively.
On to `Fc1ccc(-c2nn3c(COc4ccc(Cl)cc4)nnc3s2)cc1Oc1ccccc1`, for which the GI50 in the experiment with HCT-15 colon is greater than 60.6 µM; in the experiment with UACC-257 melanoma, 41.6 µM; in the experiment on HL-60(TB) leukemia, greater than 100 µM; in the experiment with NCI-H460 lung, 23.9 µM; with COLO 205 colon, 41.8 µM; in the experiment with NCI-H23 lung it was 20.4 µM. Also, the GI50 was 22.2 µM in the experiment with IGROV1 ovarian and 21.9 µM in the experiment on MCF7 breast. The TGI with HCT-15 colon is greater than 100 µM; in the experiment on UACC-257 melanoma, greater than 100 µM; with HL-60(TB) leukemia it was greater than 100 µM; with NCI-H460 lung, greater than 54.5 µM; in the experiment with COLO 205 colon it was greater than 61.8 µM; in the experiment on NCI-H23 lung, 40.2 µM. Besides, the TGI in the experiment on IGROV1 ovarian was greater than 54.1 µM; in the experiment with MCF7 breast, greater than 48.3 µM.
For the compound `CC1=C2[C@@H](CC1)[C@]1(C)O[C@@](C3CC3)(C[C@H]1OC(=O)CO)[C@H]2OC(=O)/C=C/c1ccccc1`, the GI50 is 13.6 µM in the experiment on HCT-15 colon; 17.7 µM with UACC-257 melanoma; 15.6 µM in the experiment on HL-60(TB) leukemia; 16.6 µM in the experiment on NCI-H460 lung; 17.9 µM in the experiment with COLO 205 colon; 16.6 µM in the experiment on NCI-H23 lung. Also, the GI50 in the experiment on IGROV1 ovarian was 19.7 µM; in the experiment on MCF7 breast, 13 µM. The TGI in the experiment on HCT-15 colon turned out to be 29.3 µM; in the experiment on UACC-257 melanoma it was 32.9 µM; with HL-60(TB) leukemia it was 42.6 µM; with NCI-H460 lung it was 33.1 µM; in the experiment with COLO 205 colon, 35.7 µM; in the experiment on NCI-H23 lung, 36 µM. Further, the TGI in the experiment with IGROV1 ovarian worked out at 42.7 µM; in the experiment with MCF7 breast it was 31.3 µM.
In the case of `CNCc1ccc(-c2[nH]c3cc(F)cc4c3c2CCNC4=O)cc1`, the GI50 in the experiment with HCT-15 colon was 35.8 µM; with UACC-257 melanoma it was 17 µM; in the experiment on HL-60(TB) leukemia, 20.9 µM; in the experiment with NCI-H460 lung it was 14.9 µM; in the experiment on COLO 205 colon, 11.7 µM; with NCI-H23 lung, 20.8 µM. The results for the GI50 with IGROV1 ovarian and with MCF7 breast were 20.8 µM and 8.9 µM, respectively. Also, the TGI in the experiment with HCT-15 colon is greater than 100 µM; in the experiment with UACC-257 melanoma, 33.2 µM; in the experiment on HL-60(TB) leukemia, 41.3 µM; in the experiment on NCI-H460 lung, 42.3 µM; with COLO 205 colon, 26.4 µM; in the experiment with NCI-H23 lung, greater than 56.7 µM. Moreover, the TGI is greater than 72.2 µM in the experiment with IGROV1 ovarian and 35.5 µM in the experiment on MCF7 breast.
On to `C#CC#CC#CC#CC#CC#CC#CC#CC[C@@H]1OC[C@@H](COC(=O)O[C@@H](C(=O)O[C@H]2C[C@@]3(O)[C@@H](OC(=O)c4ccccc4)[C@@H]4[C@]5(OC(C)=O)CO[C@@H]5C[C@H](O)[C@@]4(C)C(=O)[C@H](OC(C)=O)C(=C2C)C3(C)C)[C@@H](NC(=O)c2ccccc2)c2ccccc2)O1`, for which the GI50 was 1.11 µM in the experiment with HCT-15 colon; greater than 15.7 µM in the experiment with UACC-257 melanoma; 0.163 µM with HL-60(TB) leukemia; 0.101 µM with NCI-H460 lung; 0.181 µM with COLO 205 colon; 1.04 µM with NCI-H23 lung. Also, the GI50 with IGROV1 ovarian was 0.404 µM; with MCF7 breast, 0.0872 µM. The TGI in the experiment on HCT-15 colon, in the experiment with UACC-257 melanoma, in the experiment with HL-60(TB) leukemia, in the experiment with NCI-H460 lung, in the experiment on COLO 205 colon and in the experiment on NCI-H23 lung was greater than 33.3 µM throughout. Also, the TGI in the experiment with IGROV1 ovarian and with MCF7 breast was greater than 33.3 µM each time.
Take `COc1ccc(OCC(O)CN2CCN(c3ccc(Cl)cc3)CC2)cc1` (stereo not drawn): the GI50 with HCT-15 colon, with UACC-257 melanoma, in the experiment with HL-60(TB) leukemia, in the experiment on NCI-H460 lung, with COLO 205 colon and in the experiment with NCI-H23 lung was greater than 100 µM throughout. For the same compound, the results for the GI50 with IGROV1 ovarian and with MCF7 breast were 18.1 µM and greater than 100 µM, respectively. Further, the TGI with HCT-15 colon, in the experiment with UACC-257 melanoma, with HL-60(TB) leukemia, with NCI-H460 lung, with COLO 205 colon and in the experiment with NCI-H23 lung was greater than 100 µM throughout. Moreover, the TGI in the experiment on IGROV1 ovarian and in the experiment with MCF7 breast was greater than 100 µM in each case.
Consider `O=C(O)Cn1ccc(=O)c2cc([N+](=O)[O-])ccc21`, for which the TGI in the experiment on HCT-15 colon, in the experiment on UACC-257 melanoma, in the experiment on HL-60(TB) leukemia, with NCI-H460 lung, in the experiment with COLO 205 colon and in the experiment with NCI-H23 lung was greater than 100 µM throughout. Besides, the TGI in the experiment with IGROV1 ovarian and in the experiment with MCF7 breast was greater than 100 µM in each case.
`CCOc1ccc(Nc2nc(-c3c(C)nc4ncccn34)cs2)cc1`: the GI50 in the experiment with HCT-15 colon is 0.0467 µM; in the experiment with UACC-257 melanoma, 6.77 µM; with HL-60(TB) leukemia, 0.0216 µM; in the experiment on NCI-H460 lung it was 0.0305 µM; with COLO 205 colon it was less than 0.01 µM; in the experiment on NCI-H23 lung, 0.0623 µM. In addition, the results for the GI50 in the experiment on IGROV1 ovarian and with MCF7 breast were 0.0797 µM and 0.412 µM, respectively. The TGI in the experiment with HCT-15 colon was 15.4 µM; in the experiment with UACC-257 melanoma it was 21.3 µM; with HL-60(TB) leukemia, 0.0706 µM; in the experiment with NCI-H460 lung it was 12.5 µM; in the experiment on COLO 205 colon it was 0.0404 µM; in the experiment with NCI-H23 lung it was 22.2 µM. The TGI in the experiment on IGROV1 ovarian was found to be 26.2 µM; with MCF7 breast, 14.9 µM.
Consider `Cc1ccc(S(=O)(=O)N2CCC(C(=O)O)(c3ccccc3)CC2)cc1`, for which the TGI in the experiment on HCT-15 colon, with UACC-257 melanoma, in the experiment on HL-60(TB) leukemia, in the experiment on NCI-H460 lung, with COLO 205 colon and in the experiment on NCI-H23 lung was greater than 100 µM each time. The TGI in the experiment with IGROV1 ovarian and with MCF7 breast was greater than 100 µM throughout.
